Measured values as given in the NIST ThermoML archive (doi:10.1016/j.jct.2017.09.012).

Assay: osmotic coefficient (dimensionless); mn = molality of the nth substance listed, in mol/kg
Details: 101 kPa, Liquid, isopiestic method

O=S(=O)([O-])[O-].[Zn+2] [zinc sulfate] + O
Details	osmotic coefficient
288.15 K, m1 = 3.567	1.09
288.15 K, m1 = 3.787	1.19
288.15 K, m1 = 3.997	1.29
298.15 K, m1 = 3.223	0.935
298.15 K, m1 = 3.836	1.16
308.15 K, m1 = 3.614	1.019
308.15 K, m1 = 3.962	1.144
308.15 K, m1 = 4.295	1.27
313.15 K, m1 = 4.014	1.133
313.15 K, m1 = 4.25	1.217
313.15 K, m1 = 4.47	1.302
